Values of other authors, collected in patent US9072768B2, “Composition and method for increasing effectiveness of radiation or chemotherapy” (Kibow Biotech, Inc., priority 2013, dated 2015).

System: colorectal cancer
Conditions: adjuvant treatment, stage III patients

For `O=c1[nH]cc(F)c(=O)[nH]1` [5-Fluorouracil], the “improvement of absolute 5-year survival” value is listed as “approximately 10%”.
